Experimental data from patent EP1430933A2, “Cosmetic and pharmaceutical compositions comprising steroid sulfatase inhibitors and their use for the reduction of hair loss” (Henkel Kommanditgesellschaft auf Aktien, priority 2002, dated 2004).

Molecular target: T1, Arylsulfatase (EC 3.1.6.1) (Klebsiella aerogenes, UniProt P20713)
T1 construct: purchased Sigma S-1629
T1 sequence (P20713 21-464): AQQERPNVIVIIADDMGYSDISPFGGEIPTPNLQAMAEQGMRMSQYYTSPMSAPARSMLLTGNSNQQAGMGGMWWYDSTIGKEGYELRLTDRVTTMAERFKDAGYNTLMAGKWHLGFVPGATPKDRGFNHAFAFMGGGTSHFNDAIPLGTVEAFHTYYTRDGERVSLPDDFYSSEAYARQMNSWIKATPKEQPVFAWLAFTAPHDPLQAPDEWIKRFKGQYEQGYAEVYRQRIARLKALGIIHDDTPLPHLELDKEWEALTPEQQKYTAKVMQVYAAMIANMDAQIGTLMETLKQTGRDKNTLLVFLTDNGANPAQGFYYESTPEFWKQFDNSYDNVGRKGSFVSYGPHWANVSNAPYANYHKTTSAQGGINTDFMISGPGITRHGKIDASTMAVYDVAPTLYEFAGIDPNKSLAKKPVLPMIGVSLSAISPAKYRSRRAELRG
Experiment: Arylsulfatase enzyme test (Sigma sulfatase enzyme assay S-1629; p-nitrophenol formation from pNPS, 420 nm)
Assay type: biochemical
Settings: pH 7,1, 37°C, 8 mM pNPS
Source text: Überprüfung der inhibitorischen Wirkung der Steroidsulfatase-Inhibitoren (in vitro)
Da die Sulfatase des Haarfollikels nicht zur Verfügung stand, diente eine handelsübliche Arylsulfatase (EC 3.1.6.1) aus Aerobacter aerogenes als Modellenzym, um die Hemmwirkung der erfindungsgemäß verwendeten Inhibitoren zu testen. Die Tests wurden mit dem Sulfatase-Enzymassay Product No. S-1629 von Sigma gemäß den Angaben im Sigma Quality Control Test Procedure-Datenblatt durchgeführt. Als Referenz-Inhibitoren dienten Ascorbinsäure und ATP.
Zur Auswertung wurde die Arylsulfatase-katalysierte Bildung von p-Nitrophenol aus dem Substrat p-Nitrophenylsulfat (pNPS) spektrophotometrisch (λ = 420 nm) verfolgt. Die Reaktionslösungen von 1000 µl, die auf eine Reaktionstemperatur von 37°C temperiert wurden, enthielten 187 mM Tris/HCl (pH 7,1), 8 mM pNPS und eine Startkonzentration von 0,05 U/ml Arylsulfatase. Die Einheit U der Enzymaktivität wurde so definiert, dass 1 U Sulfatase 1,0 µmol pNPS pro Minute bei pH 7,1 und 37°C hydrolysiert. Die Testdurchführung ist auch offenbart bei H.R. Fowler und D. H. Rammler, Biochemistry 3, 230, 1964. Die Reaktion wurde durch Zugabe des Enzyms gestartet und der Anstieg der Absorption bei λ = 420 nm über 5 Minuten verfolgt. Der lineare Anstieg der Absorption (A) pro Zeiteinheit (t) ist hierbei ein Maß für die Aktivität des Enzyms (ΔA/Δt). Die Aktivität des Enzyms in Abwesenheit eines Inhibitors, (ΔA1/Δt1 ), wurde als Referenz gleich 100% gesetzt. Unter analogen Bedingungen wurden die Aktivitäten in Gegenwart eines Inhibitors (ΔA2/Δt2) bestimmt. Die Hemmwirkung des Inhibitors bzw. die Minderung der Enzymaktivität wurde dann berechnet gemäß der Formel 100% - (ΔA2/Δt2 )/( ΔA1/Δt1 )%.

For “Aluminiumchlorohydrat [Aluminiumchlorohydrat (ACH)]”, the Hemmwirkung (ACH-Lösung Locron® L 0,01 % (v/v)) was “Keine Hemmung meßbar”, the Hemmwirkung (ACH-Lösung Locron® L 0,1 % (v/v)) was 6% and the Hemmwirkung (ACH-Lösung Locron® L 0,5 % (v/v)) was 27%. The Hemmwirkung (ACH-Lösung Locron® L 1 % (v/v)) was 52%.
